Data from patent publication US20100041710A1, “PENETRATION ENHANCER FOR INSECTICIDES” (priority 2006, published 2010).
Read-outs that look alike come from different tables or passages of the source.

Assays:
[1] = Protocol: In this test, the penetration of active substances through enzymatically isolated cuticles of apple tree leaves was measured. The cuticles represent all green plant parts, such as leaf blade, petiole, stalk, trunk, hypocotyl and many fruits.
Leaves which were cut off in the stage of full development of apple trees of the Golden Delicious variety were used. The isolation of the cuticles was effected in a manner such that • first, leaf disks marked on the underside with dye and punched out were filled by means of vacuum infiltration with a pectinase solution (0.2 to 2% strength by weight) buffered to a pH between 3 and 4, • sodium azide was then added and • the leaf disks thus treated were allowed to stand until disintegration of the original leaf structure and detachment of the noncellular cuticle.
Thereafter, only those cuticles of the upper sides of the leaves which were free of stomata and hairs were further used. They were washed several times alternately with water and a buffer solution at pH 7. The cleaned cuticles obtained were finally drawn onto small Teflon plates and smoothed and dried with a gentle air jet.
In the next step, the cuticle membranes thus obtained were placed in stainless steel diffusion cells (=transport chambers) for membrane transport investigations. For this purpose, the cuticles were placed by means of forceps centrally on the silicone grease-coated edges of the diffusion cells and closed with a likewise greased ring. The arrangement was chosen so that the morphological outside of the cuticles faced outward, i.e. toward the air, while the original inside faced the interior of the diffusion cell. The diffusion cells were filled with water or with a mixture of water and solvent.
For determining the penetration, in each case 10 μl of a spray liquor of the composition mentioned in the examples were applied to the outside of a cuticle.
In each case the solvents listed below in the table (tap water or a mixture with 20% by weight of acetone/80% by weight of tap water) were used in the spray liquors.
After the application of the spray liquors, in each case the solvent was allowed to evaporate, and in each case the chambers were then turned around and placed in thermostated trays, air having a defined temperature and atmospheric humidity being blown onto the outside of the cuticle. The incipient penetration therefore took place at a relative humidity of 60% and a set temperature of 20 or 25° C. The active substance penetration was measured with radioactively marked active substance.

crop plant = test: Crop plant tolerance tests; settings: compared with other alkyl ester additives
[2] = Table 3, 0.1 g/l of imidacloprid in tap water, apple leaf cuticles, 20-25° C., rel. humidity 56-60%, mean of 10 repetitions
[3] = Table 2, 0.3 g/l of active substance, tap water (thiacloprid) or acetone/tap water 20/80% by weight (spirotetramat), 20-25° C., rel. humidity 56-60%, mean of 4-8 repetitions
[4] = Table 1, 0.18 g/l of thiacloprid in tap water, apple leaf cuticles, 20° C., rel. humidity 60%, mean of 4-8 repetitions

CCCCOCCOP(=O)(OCCOCCCC)OCCOCCCC [TBEP, tributoxyethyl phosphate]
Increase in uptake of active substances compared with prior-art penetration enhancers ([1]; summary of table 3 (imidacloprid), versus TBP and TPP): advantageously higher increase in uptake of active substances than the penetration enhancers of the prior art | Crop plant tolerance (crop plant): more tolerant than other alkyl ester additives

O=[N+]([O-])NC1=NCCN1Cc1ccc(Cl)nc1 [imidacloprid]
% Penetration after 3 h [1, 2]: 0.3% | % Penetration after 24 h [1, 2]: 0.5%

CCOC(=O)OC1=C(c2cc(C)ccc2C)C(=O)N[C@]12CC[C@@H](OC)CC2 [spirotetramat, cis-3-(2,5-dimethylphenyl)-8-methoxy-2-oxo-1-azaspiro[4.5]dec-3-en-4-yl ethyl carbonate]
% Penetration after 3 h [1, 3]: 0% | % Penetration after 48 h [1, 3]: 0.3%

N#C/N=C1\SCCN1Cc1ccc(Cl)nc1 [thiacloprid]
% Penetration after 3 h [1, 4]: 0.1% | % Penetration after 24 h [1, 4]: 0.8% | % Penetration after 3 h [1, 3]: 0.1% | % Penetration after 48 h [1, 3]: 1.0%
